Data published in a melting point compilation (Tetko et al.; mined from patent text by program, amines drawn as free bases though some values may be those of a salt).

Structure (SMILES) | melting point
CCCCCCSc1[nH]c2cccc3c2c1CC1C3C=C(C)CN1C (stereo unspecified) | 199 to 201 °C
Cc1ncsc1C(C)(O)c1ccoc1 (stereo unspecified) | 102 to 104 °C
CS(=O)(=O)CCC(=O)NCc1ccc(/C=C/C(c2cc(Cl)c(Cl)c(Cl)c2)C(F)(F)F)cc1Cl (stereo unspecified) | 101 to 104 °C
Nc1ccnc(CCl)n1 | 125 to 128 °C
CN(CCCCCCCC(F)(F)C(F)(F)F)CCCCCC1Cc2cc(O)ccc2C2C(F)CC3(C)C(O)CCC3C12 (stereo unspecified) | 11 °C
O=S(=O)(CC=C1CCCC1)c1ccccc1 | 68 °C
CCCCCCCC(=O)c1ccc(CCC(C)(CCOC(C)=O)NC(C)=O)cc1 (stereo unspecified) | 83 to 84 °C
Nc1cc(C(=O)OC2CCCC2)c(Cl)cc1F | 61 to 62 °C
NC(=O)N(O)Cc1ccc(Br)s1 | 145 to 147 °C
CC(=O)c1cccc(C(=O)Nc2c[nH]nc2C(=O)NCCC#N)c1 | 205 to 208 °C
CCCC1(Br)Cc2c(c(C)c(C)c3oc(C(=O)O)cc23)C1=O (stereo unspecified) | 233 °C
OCc1cnc(Cl)cc1Cl | 73 to 77 °C
O=C(CCl)NC1CCc2ccccc2C1=O (stereo unspecified) | 118 to 122 °C
NC(N)=Nc1nc(-c2ccc(CNC(=O)c3ccco3)o2)cs1 | 246 °C
Cn1ncc(C(=O)Nc2ccc(-n3nc(C(F)(F)F)cc3C(F)(F)F)cc2)c1[N+](=O)[O-] | 214 to 216 °C
CC(C)(C)OC(=O)C(C#N)C(=O)c1cc(F)c(F)c(F)c1F (stereo unspecified) | 90 to 92 °C
CC(C)OC(=O)c1cnc(C(=O)O)cn1 | 149 to 152 °C
CCn1ncc(C(=O)c2ccc(S(C)(=O)=O)c(-n3nc(C)cc3C)c2Cl)c1O | 217 to 218 °C
CN(C)C1(c2ccccc2)CCC2(CC1)NCCc1c2[nH]c2ccccc12 (stereo unspecified) | 214 to 218 °C
O=C(CCCCCNC(=O)CCc1ccco1)NO | 127 to 128 °C
COc1cc2c(c(C)c1C)C(O)CC2c1c[nH]cn1 (stereo unspecified) | 184 to 189 °C
Cc1nc(NC(=O)Nc2cccc3c2C2CCCCN2C3=O)cs1 (stereo unspecified) | 146 °C

Structure (SMILES) | melting point
Cc1nnc2n1-c1ccc([N+](=O)[O-])cc1C(c1ccccc1)=NC2 | 233 to 234 °C
CCNCC1CCN(c2nc3c(cc2F)c(=O)c(C(=O)O)cn3C2CC2)C1 (stereo unspecified) | 268 to 270 °C
CO/N=C(\C(=O)OC)c1csc(O)n1 | 97 to 98 °C
CCOC(=O)/C(=N\OCC(=O)N1CCCCCC1)c1csc(N)n1 | 163 to 164 °C
O=C(O)CSc1nc(-c2ccc(Cl)cc2)no1 | 112 to 114 °C
CN(C)C1(c2cccc(F)c2)CCC2(CC1)NCCc1c2[nH]c2ccccc12 (stereo unspecified) | 220 to 225 °C
CC(C)(CCBr)CC(=O)O | 53 to 55 °C
Cc1ccc2c3c(ccc2n1)OCC(CN1C2CCC1CC(O)(c1cccc(C(F)(F)F)c1)C2)O3 (stereo unspecified) | 146 to 150 °C
CCCCCCCCCCCCCCCCCCOC(=O)c1ccccc1I | 35 °C
CS(=O)(=O)c1ccc(Br)c([N+](=O)[O-])c1 | 126 °C
O=[N+]([O-])c1ccccc1OC1OC(COP(=O)(O)O)C(O)C(O)C1O (stereo unspecified) | 181 to 183 °C
NC(=O)C(Cl)(Cl)CC1(c2cc(Cl)cc(Cl)c2)CO1 (stereo unspecified) | 130 to 133 °C
COC=C(C#N)CNC=O | 84 to 86 °C
Cc1cc(C2=NN(C(=S)NN)[C@H](C)Cc3cc4c(cc32)OCO4)ccc1[N+](=O)[O-] | 109 to 115 °C
CC(C)(C)OC(=O)NC1CCCCc2cc(OCC3CCCCC3)ccc21 (stereo unspecified) | 125 to 126 °C
C#CCN1C(=O)COc2cc(F)c(-c3ncnc(C(F)(F)F)c3Cl)cc21 | 158 to 159 °C
O=C(Nc1ccc(C(F)(F)F)cc1)NC1CCN(S(=O)(=O)c2ccc(C(=O)O)cc2)CC1 | 188 to 192 °C
O=C1NC(=O)C2(CCOc3ccc(F)cc32)N1 (stereo unspecified) | 239 to 241 °C
O=S(=O)(CCCl)C1=NN(S(=O)(=O)CCCl)CS1 | 143 °C
COC(=O)CN1CN(c2ccccc2)C2(CCN(Cc3cccc4ccccc34)CC2)C1=O | 122 to 135 °C
CC1CN(C(=O)Cl)NC1=O (stereo unspecified) | 145 °C
COc1ccc(C=C(Br)Br)cc1O | 94 to 95 °C

Further lines, results first:

melting point | Structure (SMILES)
76 to 77 °C | O=CNCc1cc(C(O)CNCCCCCCOCCCCc2ccccc2)ccc1O (stereo unspecified)
184 to 185 °C | CCOC(=O)c1cn(-c2nccs2)c2nc(Cl)cc(C(F)(F)F)c2c1=O
147 to 149 °C | CCOC(=O)C1CCc2cc(Cc3cnc(N)s3)ccc2C1 (stereo unspecified)
245 to 246 °C | Cc1nc2cccnc2n(-c2ccc(Cl)cc2)c1=O
118 to 120 °C | O=c1[nH]nccc1NCCCNCCOc1cccc2c1OCCO2
208 °C | CCN=C(c1ccc(OC)c(OC)c1)N1CCCc2cc(C3=NNC(=O)SC3C)ccc21 (stereo unspecified)
272 to 274 °C | Cn1ncc2c3[nH]n(-c4ccc(S(N)(=O)=O)cc4)c(=O)c3c(-c3cccc(C(F)(F)F)c3)nc21
159 to 163 °C | O=C(O)c1ccc(-c2c3ccccc3nn2Cc2ccccc2)cc1
167 to 168 °C | COc1cc(CNC(=O)c2ccc3n2Cc2ccccc2N(C(=O)COc2ccc(Cl)cc2C)C3)ccc1O
194 to 196 °C | O=c1ccn(CCO)c(C(O)c2cccc(F)c2)c1OCc1ccccc1 (stereo unspecified)
64 to 65 °C | CS(=O)(=O)OCCC1(c2ccccc2)C=CCC=C1
148 to 150 °C | NC(=O)N1CCN(c2nn(-c3ccc(F)cc3)c3ccccc23)CC1
157 to 160 °C | O=C1Nc2cc(Cl)ccc2/C1=C\c1cccc(C(F)(F)F)c1
126 to 127 °C | CCCCOc1c(CNC(=O)OC(C)(C)C)n(CC(C)C)c(=O)c2ccc(C#N)cc12
266 °C | COc1cc(C2=C(c3c(C)[nH]c4ccccc34)C(=O)NC2=O)cc(OC)c1OC
178 to 179 °C | COc1ccc(Cn2ncn(-c3ccc(N4CCN([C@H](C)[C@](O)(Cn5cncn5)c5ccc(F)cc5F)CC4)cc3)c2=O)cc1
268 to 270 °C | COc1ccc(Cc2c(N)nc(N)nc2O)cc1OC
79 to 81 °C | Cn1cc(C(O)(c2ccc3c(cnn3C(=O)C3CCC3)c2)C(F)(F)F)c2ccccc21 (stereo unspecified)
131 to 132 °C | CC(C)Nc1cccnc1N1CCN(C(=O)c2ccc(C(=O)N(C)CCO)cc2)CC1

melting point | Structure (SMILES)
221 to 222 °C | CNc1nccc(-c2c(-c3ccc(F)cc3)ncn2C2CC(C)(C)NC(C)(C)C2)n1
161 to 164 °C | O=C(O)c1cccnc1Oc1cccc(Cl)c1
142 to 143 °C | CCCOc1ccccc1-c1nc2nc(NCCC(=O)OCC)ncc2c(=O)[nH]1
101 to 103 °C | CC(=O)c1cccc(Oc2ncccc2C(=O)NCC2CCC(C(C)O)CC2)c1 (stereo unspecified)
127 °C | CC(=O)COc1ccc(-c2ccc(=O)n(Cc3ccc(Cl)cc3F)c2)cc1
118 to 119 °C | O=C(NCCO)c1cccc(-c2cccc3cc(OCc4cccc(C(F)(F)F)c4)nn23)c1
53 to 54 °C | Cc1cccc(C(=O)c2ccc(F)cc2)n1
282 to 283 °C | CCOC(=O)c1cn2ccc(NC(=O)c3cc4cc(C(F)(F)F)ccc4n3Cc3cccc(F)c3)cc2n1
175 to 176 °C | O=c1[nH]c2ccccc2n1C1CCN(CC(O)COc2ccc(F)cc2)CC1 (stereo unspecified)
92 °C | CCOc1ccc2ccccc2c1-c1c(OCC)ccc2ccccc12
> 260 °C | NC(=O)c1sc2cnccc2c1Oc1ccc(C(=O)N2CCOCC2)cc1
63 to 64 °C | CCCN=C(NCCC)c1cc(Cl)ccc1[N+](=O)[O-]
160 to 161 °C | N#CCCn1nc(-c2ccccc2)c(-c2ccccc2)c(C#N)c1=O
238 to 240 °C | COc1cc2ncc(C#N)c(Nc3ccccc3C(N)=O)c2cc1OC
70 to 71 °C | COc1ccc(C(=O)C=Cc2ccc(OCc3ccccc3)cc2)c(O)c1CC=C(C)C
125 to 127 °C | CCOC(=O)c1ccc(NC(=O)c2cccnc2)cc1
165 °C | CN(CCc1ccc2c(c1)OCO2)C(C)(C)CCC(C(N)=O)(c1ccccc1)c1ccccc1
137 to 138 °C | COc1ccc(N2CCN(Cc3ccc(CNC(C)=O)cc3)CC2)cc1
193 to 194 °C | Nc1ncnc2c1c(-c1ccc(Oc3ccccc3)cc1)cn2C1CC2CC(O)CC2C1 (stereo unspecified)

melting point | Structure (SMILES)
209 to 211 °C | Cc1c(/C=C/C(=O)c2ccccc2)ncn1C(c1ccccc1)(c1ccccc1)c1ccccc1
212 to 215 °C | COc1cccc2c1C[C@H]1C[C@@H](CCN3CCC(O)(c4ccc(Cl)cc4)CC3)CN(C)[C@@H]1C2
148 to 155 °C | COc1ccccc1CN1CCc2cc(O)ccc2C1
205 to 208 °C | O=S(=O)(Nc1cccc(Br)n1)c1cc(S(=O)(=O)Nc2cccc(Br)n2)c2ccccc2c1
211 to 213 °C | O=C(O)/C(=C/c1cnc(-c2ccccc2)n1Cc1ccccc1Cl)Cc1ccccc1
313 to 315 °C | Cn1cc(S(=O)(=O)Cl)c(=O)c2ccccc21
169 to 170 °C | Cc1nn(-c2ccccc2)c(C)c1CC(N)=O
212 to 214 °C | Cc1ccc(-c2cc3c(n2-c2ccc(O)c(C(=O)O)c2)CCCC3)cc1
138 to 139 °C | CC(C)(C)c1cc(CCc2ccccc2NC(=O)NCCCN2CCOCC2)cc(C(C)(C)C)c1O
131 to 132 °C | CCCCSc1cc(C(=O)O)cc(N)c1Oc1ccccc1
138 to 141 °C | CCc1cc2c(s1)SCC1CC(=O)N(c3ccc(Cl)cc3)N=C21 (stereo unspecified)
194 to 195 °C | O=C(O)CCc1oc(-n2ccnc2)nc1-c1ccc(Cl)cc1
141 to 142 °C | Cc1cc(OCC(F)(F)F)c(NC(=O)CN2CCN(CCSc3nc4ccccc4o3)CC2)c(OCC(F)(F)F)n1
> 250 °C | COc1cc(OC)c(-c2cn[nH]c2)cc1C=CC(=O)c1ccc(C(=O)O)cc1
97 to 100 °C | CCOC(=O)c1c(-c2ccc(F)cc2)cc(-c2ccccc2)n1C(C)C
64 °C | COC(=O)Cc1ccc(OCCNC(=O)C2Cc3c(OC)cccc3N2S(=O)(=O)c2ccc(-c3cccc(C(F)(F)F)c3)cc2)cc1 (stereo unspecified)
223 to 224 °C | COc1ccc(-c2nnc(Nc3ccc(Cl)c(Cl)c3)s2)cc1OCc1ccccc1
99 to 101 °C | COc1ccc(C2SCCCS2)cc1OC
156 to 157 °C | CC(C)(NC(=O)CNC(=O)c1ccccc1)c1ccccc1
